From patent US8975406B2, “Compound useful for the treatment of degenerative and inflammatory diseases” (Galapagos N.V., priority 2011, dated 2015)

What was measured:
Assay type in all cases: biochemical
Recombinant human JAK1 = biological target: T1, Recombinant human JAK1 (Homo sapiens, UniProt P23458); experiment: JAK1 Ulight-JAK1 peptide assay; settings: Ulight-JAK1(tyr1023) peptide, 7 μM ATP
T1 construct: catalytic domain (amino acids 866-1154; catalog number PV4774); purchased Invitrogen PV4774
T1 sequence (P23458 866-1154): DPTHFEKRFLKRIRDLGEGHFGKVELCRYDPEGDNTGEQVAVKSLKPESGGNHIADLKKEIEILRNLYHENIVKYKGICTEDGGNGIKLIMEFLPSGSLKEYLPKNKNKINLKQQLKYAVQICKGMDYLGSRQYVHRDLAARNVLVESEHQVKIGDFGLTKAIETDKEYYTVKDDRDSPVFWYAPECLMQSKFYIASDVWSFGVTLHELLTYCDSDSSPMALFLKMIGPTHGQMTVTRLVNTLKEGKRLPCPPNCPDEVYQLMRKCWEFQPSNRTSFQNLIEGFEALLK
Method: Recombinant human JAK1 (catalytic domain, amino acids 866-1154; catalog number PV4774) was purchased from Invitrogen. 1 ng of JAK1 was incubated with 20 nM Ulight-JAK1(tyr1023) peptide (Perkin Elmer catalog number TRF0121) in kinase reaction buffer (25 mM MOPS pH6.8, 0.01% Brij-35, 5 mM MgCl2, 2 mM DTT, 7 μM ATP) with or without 4 μL containing test compound or vehicle (DMSO, 1% final concentration), in a total volume of 20 μL, in a white 384 Opti plate (Perkin Elmer, catalog number 6007290). After 60 min at room temperature, reactions were stopped by adding 20 μL/well of detection mixture (1× detection buffer (Perkin Elmer, catalog number CR97-100C), 0.5 nM Europium-anti-phosphotyrosine (PT66) (Perkin Elmer, catalog number AD0068), 10 mM EDTA). Readout is performed using the Envision with excitation at 320 nm and measuring emission at 615 nm (Perkin Elmer). Kinase activity was calculated by subtracting relative fluorescence units (RFU) obtained in the presence of a positive control inhibitor (10 μM staurosporine) from RFU obtained in the presence of vehicle. The ability of a test compound to inhibit this activity was determined as: Percentage inhibition=((RFU determined for sample with test compound present−RFU determined for sample with positive control inhibitor)divided by(RFU determined in the presence of vehicle−RFU determined for sample with positive control inhibitor))*100.
(§1) Dose dilution series were prepared for the compounds enabling the testing of dose-response effects in the JAK1 assay and the calculation of the IC50 for the compound. Each compound is routinely tested at concentration of 20 μM followed by a ⅕ serial dilution, 10 points in a final concentration of 1% DMSO. When potency of compound series increases, more dilutions are prepared and/or the top concentration are lowered (e.g. 5 μM, 1 μM). The data are expressed as the average IC50 from the assays±standard error of the mean.

Recombinant human JAK2 = biological target: T2, Recombinant human JAK2 (Homo sapiens, UniProt O60674); experiment: JAK2 Ulight-JAK1 peptide assay; settings: Ulight-JAK1(tyr1023) peptide, 7.5 μM ATP
T2 construct: catalytic domain (amino acids 808-1132; catalog number PV4210); GST; purchased Invitrogen PV4210
T2 sequence (O60674 808-1132): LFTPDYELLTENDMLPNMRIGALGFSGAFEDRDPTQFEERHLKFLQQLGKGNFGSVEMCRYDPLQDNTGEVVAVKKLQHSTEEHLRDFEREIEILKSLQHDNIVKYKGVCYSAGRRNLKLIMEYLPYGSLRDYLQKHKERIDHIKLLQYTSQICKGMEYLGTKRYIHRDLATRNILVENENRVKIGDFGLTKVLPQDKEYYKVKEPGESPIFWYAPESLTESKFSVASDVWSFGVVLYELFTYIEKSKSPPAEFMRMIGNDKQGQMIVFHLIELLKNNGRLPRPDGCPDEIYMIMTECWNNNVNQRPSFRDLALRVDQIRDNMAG
Method: Recombinant human JAK2 (catalytic domain, amino acids […]; catalog number PV4210) was purchased from Invitrogen. 0.0125 mU of JAK2 was incubated with 25 nM Ulight-JAK1(tyr1023) peptide (Perkin Elmer catalog number TRF0121) in kinase reaction buffer (25 mM HEPES pH7.0, 0.01% Triton X-100, 7.5 mM MgCl2, 2 mM DTT, 7.5 μM ATP) with or without 4 μL containing test compound or vehicle (DMSO, 1% final concentration), in a total volume of 20 μL, in a white 384 Opti plate (Perkin Elmer, catalog number 6007290). After 60 min at room temperature, reactions were stopped by adding 20 μL/well of detection mixture (1× detection buffer (Perkin Elmer, catalog number CR97-100C), 0.5 nM Europium-anti-phosphotyrosine (PT66) (Perkin Elmer, catalog number AD0068), 10 mM EDTA). Readout is performed using the Envision with excitation at 320 nm and measuring emission at 615 nm (Perkin Elmer). Kinase activity was calculated by subtracting relative fluorescence units (RFU) obtained in the presence of a positive control inhibitor (10 μM staurosporine) from RFU obtained in the presence of vehicle. The ability of a test compound to inhibit this activity was determined as: Percentage inhibition=((RFU determined for sample with test compound present−RFU determined for sample with positive control inhibitor)divided by(RFU determined in the presence of vehicle−RFU determined for sample with positive control inhibitor))*100.
as §1, with “each compound” for “the compounds”, “JAK2” for “JAK1”

[1] = biological target: T3, Recombinant human JAK3 catalytic domain (Homo sapiens, UniProt P52333); experiment: JAK3 inhibition assay; settings: polyGT substrate, 33P-gamma-ATP filter assay, 1 μM ATP
T3 construct: catalytic domain (amino acids 795-1124; catalog number 08-046); purchased Carna Biosciences 08-046
T3 sequence (P52333 795-1124): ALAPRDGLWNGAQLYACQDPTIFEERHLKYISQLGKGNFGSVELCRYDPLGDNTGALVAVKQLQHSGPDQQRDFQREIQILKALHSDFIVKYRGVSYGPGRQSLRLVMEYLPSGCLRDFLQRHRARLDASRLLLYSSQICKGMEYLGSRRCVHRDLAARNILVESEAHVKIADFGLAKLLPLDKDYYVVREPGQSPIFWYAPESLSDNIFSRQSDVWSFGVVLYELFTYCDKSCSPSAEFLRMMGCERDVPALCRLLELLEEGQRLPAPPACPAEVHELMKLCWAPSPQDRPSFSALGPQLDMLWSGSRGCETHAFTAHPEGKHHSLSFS
Method: Recombinant human JAK3 catalytic domain (amino acids 795-1124; catalog number 08-046) was purchased from Carna Biosciences. 0.5 ng JAK3 protein was incubated with 2.5 μg polyGT substrate (Sigma catalog number P0275) in kinase reaction buffer (25 mM Tris pH 7.5, 0.5 mM EGTA, 10 mM MgCl2, 2.5 mM DTT, 0.5 mM Na3VO4, 5 mM b-glycerolphosphate, 0.01% Triton X-100, 1 μM non-radioactive ATP, 0.25 μCi ^33P-gamma-ATP (Perkin Elmer, catalog number NEG602K001MC) final concentrations) with or without 5 μL containing test compound or vehicle (DMSO, 1% final concentration), in a total volume of 25 μL, in a polypropylene 96-well plate (Greiner, V-bottom). After 45 min at 30° C., reactions were stopped by adding 25 μL/well of 150 mM phosphoric acid. All of the terminated kinase reaction was transferred to prewashed (75 mM phosphoric acid) 96 well filter plates (Perkin Elmer catalog number 6005177) using a cell harvester (Perkin Elmer). Plates were washed 6 times with 300 μL per well of a 75 mM phosphoric acid solution and the bottom of the plates was sealed. 40 μL/well of Microscint-20 was added, the top of the plates was sealed and readout was performed using the Topcount (Perkin Elmer). Kinase activity was calculated by subtracting counts per min (cpm) obtained in the presence of a positive control inhibitor (10 μM staurosporine) from cpm obtained in the presence of vehicle. The ability of a test compound to inhibit this activity was determined as: Percentage inhibition=((cpm determined for sample with test compound present−cpm determined for sample with positive control inhibitor)divided by(cpm determined in the presence of vehicle−cpm determined for sample with positive control inhibitor))*100.
Dose dilution series were prepared for the compounds enabling the testing of dose-response effects in the JAK3 assay and the calculation of the IC50 for each compound. Each compound was routinely tested at concentration of 20 μM followed by a ⅕ serial dilution, 10 points in a final concentration of 1% DMSO. When potency of compound series increased, more dilutions were prepared and/or the top concentration was lowered (e.g. 5 μM, 1 μM).

Row | SMILES | IC50 (Recombinant human JAK1) | IC50 (Recombinant human JAK2) | IC50 [1]
1 | O=C(Nc1nn2cccc(-c3ccc(C(=O)N4CCCCC4)cc3)c2c1Cl)C1CC1 [Compound 16, N-(3-chloro-4-(4-(piperidine-1-carbonyl)phenyl)pyrazolo[1,5-a]pyridin-2-yl)cyclopropanecarboxamide] | 101 to 500 nM | > 1000 nM | –
2 | COC(=O)N1CCN(Cc2ccc(-c3cccn4nc(NC(C)=O)cc34)cc2)CC1 [Compound 22] | 101 to 500 nM | 101 to 500 nM | –
3 | CC(=O)Nc1cc2c(-c3cnc(OCCn4cccn4)c(F)c3)cccn2n1 [Compound 30] | 101 to 500 nM | 101 to 500 nM | –
4 | CC(=O)Nc1cc2c(-c3ccc(C(=O)N4COCC4(C)C)cc3)cccn2n1 [Compound 31, N-(4-(4-(4,4-dimethyloxazolidine-3-carbonyl)phenyl)pyrazolo[1,5-a]pyridin-2-yl)acetamide] | 101 to 500 nM | 101 to 500 nM | –
5 | CC(=O)Nc1cc2c(-c3ccc(C(=O)N4CCC4)cc3)cccn2n1 [Compound 32, N-(4-(4-(azetidine-1-carbonyl)phenyl)pyrazolo[1,5-a]pyridin-2-yl)acetamide] | 101 to 500 nM | 101 to 500 nM | –
6 | CC(=O)Nc1cc2c(-c3ccc(CC(=O)N4CCC4)cc3)cccn2n1 [Compound 33, N-(4-(4-(2-(azetidin-1-yl)-2-oxoethyl)phenyl)pyrazolo[1,5-a]pyridin-2-yl)acetamide] | 101 to 500 nM | 101 to 500 nM | > 1000 nM
7 | CC(=O)Nc1cc2c(-c3ccc(CC(=O)N4C[C@@H](C)O[C@@H](C)C4)cc3)cccn2n1 [Compound 37, N-(4-(4-(2-((2S,6R)-2,6-dimethylmorpholino)-2-oxoethyl)phenyl)pyrazolo[1,5-a]pyridin-2-yl)acetamide] | > 1000 nM | 101 to 500 nM | –
8 | CC(=O)Nc1cc2c(-c3ccc(C(=O)N4C[C@@H](C)O[C@@H](C)C4)cc3)cccn2n1 [Compound 39, N-(4-(4-((2S,6R)-2,6-dimethylmorpholine-4-carbonyl)phenyl)pyrazolo[1,5-a]pyridin-2-yl)acetamide] | 101 to 500 nM | 101 to 500 nM | –
9 | CC(=O)Nc1cc2c(-c3ccc(C(=O)N4CCCCC4)cc3)cccn2n1 [Compound 40, N-(4-(4-(piperidine-1-carbonyl)phenyl)pyrazolo[1,5-a]pyridin-2-yl)acetamide] | 101 to 500 nM | 101 to 500 nM | –
10 | CC(=O)Nc1cc2c(-c3ccc(C(=O)N4CC(F)(F)C4)cc3)cccn2n1 [Compound 41, N-(4-(4-(3,3-difluoroazetidine-1-carbonyl)phenyl)pyrazolo[1,5-a]pyridin-2-yl)acetamide] | 101 to 500 nM | 101 to 500 nM | –
11 | CC(=O)Nc1cc2c(-c3ccc(C(=O)N4CCOCC4)cc3)cccn2n1 [Compound 42, N-(4-(4-(morpholine-4-carbonyl)phenyl)pyrazolo[1,5-a]pyridin-2-yl)acetamide] | 501 to 1000 nM | 101 to 500 nM | –
